Test results as given in patent US10307404B1, “Ocular formulations for drug-delivery to the posterior segment of the eye” (priority 2013, dated 2019).
Where two headings read alike, the source gives them in different places.

Key:
Solubility = type: physicochemical
[1] = set-up: species or system Dutch-Belted rabbits; conditions: rabbit, in vivo
Procedure: The ocular solution of Compound-I comprising cyclodextrin was prepared and tested in different groups of animals.

[2] = PK of topical ocular sodium phosphate-based Gel Drop, concentrations 1 hour after last dose; type: in vivo, Dutch-belted rabbits; conditions: Dutch-belted, rabbit
Source text: The Gel Drop of Compound-I was applied to eyes of Dutch-belted rabbits.

Cl.NC(=O)c1c(OCc2c(F)cc(Br)cc2F)nsc1NC(=O)NCCCCN1CCCC1 [Compound-I, 3-[(4-bromo-2,6-difluorophenyl)methoxy]-5-[[[[4-(1-pyrrolidinyl)butyl]amino]carbonyl]amino]-4-isothiazolecarboxamide hydrochloride]
solubility provided (clinical dose strengths) (Solubility; HP-β-CD (KLEPTOSE HPB) at equal to or more than 1:6 molar ratio): 0.1-1.0%
solubility provided (clinical dose strengths) (Solubility; SBE-β-CD (CAPTISOL) at equal to or more than 1:2 ratio): 0.1-1.0%
Solubility (Solubility; pH 7.5 (0.05M NaH2PO4)): 1000 µg/mL
Solubility (Solubility; pH 9.0 (0.05 m Na2HPO4)): 700 µg/mL
tolerability [1]: well-tolerated
concentration at 1 h ([2]; AH (aqueous humor), 2 mg/ml, pH 6, 2 mg/ml pH 6 BAK 0.005% Gly 2% Osmo 232, 3x/day 5 days, read-out: Mean [AH]): 30 nM
concentration at 1 h ([2]; AH (aqueous humor), 2 mg/ml, pH 6, 2 mg/ml pH 6.0 Phos 0.02% BAK 0.005% Gly 2% PS80 1% Tylox 0.2%, 3x/day 5 days, read-out: Mean [AH]): 13.8 nM
concentration at 1 h ([2]; AH (aqueous humor), 2 mg/ml, pH 6, 2 mg/ml pH 6 Phos 0.05% BAK 0.005% Gly 2% PS80 1% Osmo 261, 3x/day 5 days, read-out: Mean [AH]): 25.5 nM
concentration at 1 h ([2]; AH (aqueous humor), 2 mg/ml, pH 6, 2 mg/ml pH 6.0 Phos 0.05% BAK 0.005% Gly 2%, 3x/day 5 days, read-out: Mean [AH]): 32.2 nM
concentration at 1 h ([2]; AH (aqueous humor), 2 mg/ml, pH 6, 2 mg/ml pH 6.0 Phos 0.2% BAK 0.005% Gly 2%, 3x/day 5 days, read-out: Mean [AH]): 14.8 nM
concentration at 1 h ([2]; AH (aqueous humor), 4 mg/ml, pH 6, 4 mg/ml pH 6.0 Phos 0.2% BAK 0.005% Gly 2%, 3x/day 5 days, read-out: Mean [AH]): 25 nM
concentration at 1 h ([2]; AH (aqueous humor), 4 mg/ml, pH 6, 4 mg/ml pH 6.0 Phos 2% BAK 0.005% Gly 2% PS80 1% Tylox 0.2%, 3x/day 5 days, read-out: Mean [AH]): 21.1 nM
concentration at 1 h ([2]; AH (aqueous humor), 6 mg/ml, pH 5.9, 6 mg/ml pH 5.9 Phos 0.05% BAK 0.005% Gly 2% PS80 1% Tylox 0.1% Polox 0.2% Osmo 270, 3x/day 4 days, read-out: Mean [AH]): 222 nM
concentration at 1 h ([2]; AH (aqueous humor), 6 mg/ml, pH 5.9, 6 mg/ml pH 5.9 Phos 0.1% BAK 0.005% Gly 2% Polox 0.2% Osmo 257, 3x/day 4 days, read-out: Mean [AH]): 55.4 nM
concentration at 1 h ([2]; aqueous humor (AH), 1 mg/ml, pH 6, 1 mg/ml pH 6 BAK 0.005% Gly 2% Osmo 234, 3x/day 5 days, read-out: Mean [AH]): 17.1 nM
concentration at 1 h ([2]; aqueous humor (AH), 1 mg/ml, pH 6, 1 mg/ml pH 6.0 Phos 0.05% BAK 0.005% Gly 2% PS80 0.01% Tylox 0.2%, 3x/day 5 days, read-out: Mean [AH]): 9.09 nM
concentration at 1 h ([2]; aqueous humor (AH), 1 mg/ml, pH 6, 1 mg/ml pH 6 Phos 0.05% BAK 0.005% Gly 2%, 3x/day 5 days, read-out: Mean [AH]): 16.4 nM
concentration at 1 h ([2]; aqueous humor (AH), 1 mg/ml, pH 6, 1 mg/ml pH 6.0 Phos 0.2% BAK 0.005% Gly 2% PS80 1% Tylox 0.2%, 3x/day 5 days, read-out: Mean [AH]): 6.27 nM
concentration at 1 h ([2]; aqueous humor (AH), 1 mg/ml, pH 6, 1 mg/ml pH 6.0 Phos 0.2% BAK 0.005% Gly 2%, 3x/day 5 days, read-out: Mean [AH]): 20.6 nM
concentration at 1 h ([2]; aqueous humor (AH), 2 mg/ml, pH 6, 2 mg/ml pH 6 Phos 0.05% BAK 0.005% Gly 2% Osmo 244, 3x/day 5 days, read-out: Mean [AH]): 27.8 nM
concentration at 1 h ([2]; aqueous humor (AH), 2 mg/ml, pH 6, 2 mg/ml pH 6.0 Phos 0.05% BAK 0.005% Gly 2% PS80 1% Tylox 0.2%, 3x/day 5 days, read-out: Mean [AH]): 18.2 nM
concentration at 1 h ([2]; aqueous humor (AH), 2 mg/ml, pH 6, 2 mg/ml pH 6.0 Phos 0.1% BAK 0.005% Gly 2%, 3x/day 5 days, read-out: Mean [AH]): 18.9 nM
concentration at 1 h ([2]; aqueous humor (AH), 2 mg/ml, pH 6, 2 mg/ml pH 6 Phos 0.2% BAK 0.005% Gly 2% Osmo 257, 3x/day 5 days, read-out: Mean [AH]): 29.5 nM
concentration at 1 h ([2]; aqueous humor (AH), 2 mg/ml, pH 6, 2 mg/ml pH 6 Phos 0.2% BAK 0.005% Gly 2% PS80 1% Osmo 281, 3x/day 5 days, read-out: Mean [AH]): 19.7 nM
concentration at 1 h ([2]; aqueous humor (AH), 2 mg/ml, pH 6.1, 2 mg/ml pH 6.1 Phos […] Osmo 34, 3x/day 4 days, read-out: Mean [AH]): 13.7 nM
concentration at 1 h ([2]; choroid, 1 mg/ml, pH 6, 1 mg/ml pH 6 BAK 0.005% Gly 2% Osmo 234, 3x/day 5 days, read-out: MEAN [choroid]): 359 nM
concentration at 1 h ([2]; choroid, 1 mg/ml, pH 6, 1 mg/ml pH 6 BAK 0.005% Gly 2% PS80 1% Tylox 0.1% Polox 0.2% Osmo 237, 3x/day 5 days, read-out: MEAN [choroid]): 339 nM
concentration at 1 h ([2]; choroid, 1 mg/ml, pH 6, 1 mg/ml pH 6.0 Phos 0.05% BAK 0.005% Gly 2% PS80 0.01% Tylox 0.2%, 3x/day 5 days, read-out: MEAN [choroid]): 295 nM
concentration at 1 h ([2]; choroid, 1 mg/ml, pH 6, 1 mg/ml pH 6 Phos 0.05% BAK 0.005% Gly 2%, 3x/day 5 days, read-out: MEAN [choroid]): 398 nM
concentration at 1 h ([2]; choroid, 1 mg/ml, pH 6, 1 mg/ml pH 6.0 Phos 0.2% BAK 0.005% Gly 2% PS80 1% Tylox 0.2%, 3x/day 5 days, read-out: MEAN [choroid]): 423 nM
concentration at 1 h ([2]; choroid, 1 mg/ml, pH 6, 1 mg/ml pH 6.0 Phos 0.2% BAK 0.005% Gly 2%, 3x/day 5 days, read-out: MEAN [choroid]): 519 nM
concentration at 1 h ([2]; choroid, 1 mg/ml, pH 6.1, 1 mg/ml pH 6.1 BAK 0.005% Gly 2% Osmo 230, 3x/day 5 days, read-out: MEAN [choroid]): 537 nM
concentration at 1 h ([2]; choroid, 2 mg/ml, pH 5.9, 2 mg/ml pH 5.9 Phos 0.05% BAK 0.005% Gly 2% Osmo 233, 3x/day 5 days, read-out: MEAN [choroid]): 362 nM
concentration at 1 h ([2]; choroid, 2 mg/ml, pH 6, 2 mg/ml pH 6 BAK 0.005% Gly 2% Osmo 232, 3x/day 5 days, read-out: MEAN [choroid]): 589 nM
concentration at 1 h ([2]; choroid, 2 mg/ml, pH 6, 2 mg/ml pH 6.0 Phos 0.02% BAK 0.005% Gly 2% PS80 1% Tylox 0.2%, 3x/day 5 days, read-out: MEAN [choroid]): 599 nM
concentration at 1 h ([2]; choroid, 2 mg/ml, pH 6, 2 mg/ml pH 6 Phos 0.05% BAK 0.005% Gly 2% Osmo 244, 3x/day 5 days, read-out: MEAN [choroid]): 422 nM
